ChEMBL document CHEMBL6096707, “UBE2N: Hope on the Cancer Front, How to Inhibit This Promising Target Prospect?” (J Med Chem, 2025)

Legend:
[1] = target: T1, Ubiquitin-conjugating enzyme E2 N (Homo sapiens, UniProt P61088); test: Inhibition of UBE2N (unknown origin) by TR-FRET analysis
T1 sequence (P61088 whole entry): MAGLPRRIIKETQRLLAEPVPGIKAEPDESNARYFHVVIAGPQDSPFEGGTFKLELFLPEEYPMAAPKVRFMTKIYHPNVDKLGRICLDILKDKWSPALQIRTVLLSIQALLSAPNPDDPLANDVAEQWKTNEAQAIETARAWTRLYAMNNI

[2] = target: T1, Ubiquitin-conjugating enzyme E2 N; test: Inhibition of UBE2N (unknown origin)
[3] = Inhibition of HDM2/p53 (unknown origin) protein-protein interaction; set-up: species or system Homo sapiens

Compound	IC50 [1] [µM]	IC50 [2] [µM]	IC50 [3] [µM]
C=C1CC(C)(C)[C@@H](/C=C\[C@@H](C)[C@H]2CC[C@H]3[C@@H]4C[C@H](OS(=O)(=O)O)[C@H]5C[C@@H](O)CC[C@]5(C)[C@H]4CC[C@]23C)[C@H]1CC(O)[C@@H](C)[C@H]1CC[C@H]2[C@@H]3C[C@H](OS(=O)(=O)O)[C@H]4C[C@H](OS(=O)(=O)O)[C@@H](OS(=O)(=O)O)C[C@]4(C)[C@H]3CC[C@]12C (stereo partly specified)	–	0.13	–
C[C@@H](N)[C@@H](O)C/C=C\C/C=C\C/C=C\C/C=C\C/C=C\C/C=C\CCCCCC[C@H](O)[C@@H](C)N [LEUCETTAMOL A]	–	–	150
CC1=CC(C)(C)[C@@H](/C=C\[C@@H](C)[C@H]2CC[C@H]3[C@@H]4C[C@H](OS(=O)(=O)O)[C@H]5C[C@H](O)[C@@H](OS(=O)(=O)O)C[C@]5(C)[C@H]4CC[C@]23C)[C@H]1CC[C@@H](C)[C@H]1CC[C@H]2[C@@H]3C[C@H](OS(=O)(=O)O)[C@H]4C[C@H](OS(=O)(=O)O)[C@@H](OS(=O)(=O)O)C[C@]4(C)[C@H]3CC[C@]12C [MANADOSTEROL A]	–	0.09	160

More lines, now with the values ahead:

IC50 [1] [µM]	IC50 [2] [µM]	IC50 [3] [µM]	Compound
0.781	–	–	O=C(NCC1CCN(Cc2cccc(Cl)c2)CC1)[C@@H]1CCCN(c2ncnc3c2nc2n3CCCC2)C1
–	16	–	COC(=O)c1cc2c(cn1)[nH]c1ccc(O)cc12
